Assay results as given in patent publication US20170044222A1, “Anti-Microbial Coatings and Devices” (priority 2015, published 2017).
Several values for one entry are separate records, joined by “and”; a condition that tells them apart may be missing. Identical values can stand only once. Entries after “also recorded” stand apart in the source; their conditions may differ. Ends that are not written are not given here.

Columns and labels:
[1] = tested on: epithelial cells; conditions: cited from earlier work
[2] = tested on: Escherichia coli HB101 (ATCC 33694); test: Bacterial mortality on peptide-coated QCM-D sensors (LIVE/DEAD BacLight), E. coli; format: cell-based; conditions: for mortality of E. coli: 1 hour exposure to surface-bound peptide, PEG binding at 23° C; for bactericidal activity against E. coli compared across tether lengths: C-CHY1 tethered via PEG 866, 2000 or 7500, 1 hour exposure
Description: (§1) Bacterial Strains and Culturing. Escherichia coli HB101 (ATCC 33694) and Staphylococcus aureus (ATCC 48366) were cultured overnight in Luria-Bertani broth (20 g/L). For QCM-D and toxicity studies, cells were harvested at the late logarithmic phase in their growth curve, as confirmed by absorbance measurements (OD(600)=0.7-1.0 arbitrary units) (Thermo Scientific USA, Waltham, Mass. USA). The cells were centrifuged at 1284×g (Centrific Thermo Scientific, Waltham, Mass. USA) and re-suspended in 0.01 M, pH 7.2 phosphate buffered saline (PBS) (Sigma Aldrich, St. Louis, Mo. USA) twice, and then diluted 100-fold to approximately 10^8 cfu/mL.
(§2) Changes in frequency (Δf, Hz) and dissipation (ΔD, ×10-6 Hz) at the 3rd, 5th, 7th, 9th and 11th overtones were monitored at a constant 23° C. in all chambers using a Q-Sense E4 QCM-D system (Biolin Scientific, Stockholm, Sweden). All flow rates for the solutions were at 0.1 mL/min unless otherwise noted, and all volumes given are on a per chamber basis. PBS/EDTA (pH 7.2) buffer was used to establish a stable baseline measurement. Maleimide PEG N-hydroxysuccinimide ester molecules (MAL-PEG-NHS) with molecular weights (MW) of 866 (ThermoScientific, Waltham Mass., USA), 2000, or 7500 (JenKem Technology USA Inc., Allen, Tex. USA) were purchased. These will be referred to as PEG 866, PEG 2000 and PEG 7500, respectively. One mL of 100 μM MAL-PEG-NHS was flowed through the QCM-D and subsequently incubated for 30 min. Crystals were then rinsed with 1.2 mL of the PBS/EDTA (pH 7.2) buffer. Similarly, 1.25 mL of 10 μM C-CHY1 solution was then flown over the sensors and allowed to incubate for 30 min. To rinse excess C-CHY1 off the surface and prepare for the introduction of 2 mL bacteria, a 45 min PBS rinse at 0.3 mL/min was first flowed through the QCM-D. The dilute bacterial solution was allowed to incubate for 1 hour, followed by a final 2 mL PBS (pH 7.2) rinse. The crystals were removed from the chambers and placed in individual petri dishes containing 0.85% (w/v) NaCl solution for bacterial viability testing.
QCM-D Control Experiments: Physical Adsorption of CHY1. Similarly, SiO2-coated sensors were used for physical adsorption of unmodified CHY1 and were prepared as described above. For this experiment there was no APTMS functionalization or PEG flow, thus, after cleaning, the crystals were placed immediately into the QCM-D, PBS (pH 7.2) was used to establish a baseline and 1.25 mL of 10 μM CHY1 solution was introduced. Then, flow was stopped and CHY1 was incubated for 30 min. […]
(§3) Bacterial Mortality. Bacterial mortality was determined immediately after the final rinse of the QCM-D experiment. […]

[3] = tested on: Staphylococcus aureus (ATCC 48366); test: Bacterial mortality on peptide-coated QCM-D sensors (LIVE/DEAD BacLight), S. aureus; format: cell-based; conditions: for mortality of S. aureus: 1 hour exposure to surface-bound peptide, PEG binding at 23° C; for bactericidal activity against S. aureus compared across tether lengths: C-CHY1 tethered via PEG 866, 2000 or 7500, 1 hour exposure
Description: as §1, §2
QCM-D Control Experiments: Physical Adsorption of CHY1. Similarly, SiO2-coated sensors were used for physical adsorption of unmodified CHY1 and were prepared as described above. For this experiment there was no APTMS functionalization or PEG flow, thus, after cleaning, the crystals were placed immediately into the QCM-D, PBS (pH 7.2) was used to establish a baseline and 1.25 mL of 10 μM CHY1 solution was introduced. Then, flow was stopped and CHY1 was incubated for 30 min. The rest of the protocol described in the previous section was then followed, including the 0.3 mL/min PBS rinse, bacterial flow, bacterial incubation and final PBS rinse. The crystals were removed from the chambers and placed in individual petri dishes containing 0.85% (w/v) NaCl solution for bacterial viability testing. For the next type of control, crystals that had never been coated with APTMS were cleaned and placed into the QCM-D chambers without functionalization. Starting with a PBS rinse, the crystals were exposed to bacteria solution for 1 hour and then rinsed before imaging. For the APTMS control, crystals were cleaned and functionalized with APTMS. Then the procedure continued starting with a PBS rinse (pH 7.2), bacteria introduction, incubation, and a final rinse before imaging. […]
as §3

[4] = QCM-D mass attachment, layer thickness and areal mass of tether/peptide layers (Sauerbrey and Voigt-Kelvin); format: physicochemical; conditions: for Chrysophsin-1 attachment ng Voigt-Kelvin / Chrysophsin-1 attachment ng Sauerbrey: 10 μM peptide, 23° C; for Chrysophsin-1 attachment ng Voigt-Kelvin: Voigt-Kelvin viscoelastic model; for Chrysophsin-1 attachment ng Sauerbrey: mean of 3rd-11th overtones ± standard error; for C-CHY1 areal mass (ng/cm^2) Sauerbrey: Sauerbrey estimation divided by crystal surface area; for C-CHY1 areal mass (ng/cm^2) Voigt-Kelvin / PEG/C-CHY1 layer thickness (nm) Voigt-Kelvin: Voigt-Kelvin model; for C-CHY1 areal mass (ng/cm^2) Voigt-Kelvin: includes PEG spacer, attached C-CHY1 and trapped buffer; for PEG/C-CHY1 layer thickness (nm) Voigt-Kelvin: tether plus peptide film, or physically-adsorbed CHY1 film
Description: Referring to FIG. 1, the surface is functionalized with the anti-microbial peptide via a flexible linker molecule and exposed to bacteria in the QCM-D using QCM-D sensors as the substrate. Referring to FIG. 2 QCM-D was used to monitor covalent attachment in real-time of the PEG spacer molecule followed by introduction of the C-CHY1 peptide to the functionalized SiO2 surface (FIG. 2). According to the Sauerbrey calculation, the Δm due to PEG spacers is between 2 and 100 ng per crystal (Table 1, below; FIG. 3). The mass of PEG attached decreases with increasing tether length (FIG. 3). PEGylated surfaces show a rigid surface (ΔD values from +1×10^−6 to +2×10^−6 Hz) compared to the bulk fluid baseline, validating the use of Eqn. 1 and 2 for PEG layer calculations. When C-CHY1 is introduced, there is a rapid decrease of Δf corresponding to a Δm of 0.8 to 2.2 μg (Table 1) bound to the surface. This step is accompanied by a large increase in ΔD from near +2×10^−6 to +20×10^−6 Hz after the introduction of C-CHY1. Comparatively, CHY1 introduction leads to a Δf decrease corresponding a Δm of about 0.4 μg of CHY1 being physically-adsorbed on the surface.
Thus, parameters of the system were modeled using the Voigt-Kelvin extended viscoelastic model in Q-Tools software (Biolin Scientific, Stockholm, Sweden). This model corrects the Sauerbrey estimations for higher energy dissipation by adding terms to the Δf relation to mass (Eqn. 3) and ΔD relation to film rigidity (Eqn. 4).
Where ηL is the viscosity of the bulk liquid assumed to be water (kg/m·s); δL, and δf are the decay lengths of the acoustic wave in the bulk liquid and film (m), respectively; mq and mf […], respectively; ρf is the film density (kg/m^3). The layer was modeled to get numerical outputs for layer viscosity, density, and shear modulus (ηm, ρm, and μm), and film thickness. All overtones were modeled at once. The bulk liquid, predominantly PBS or PBS/EDTA, was assumed to have the same viscosity and density as water at 23° C. Model step size and output ranges were changed based on calculated theoretical values using estimated extended molecule size, and the lowest chi square value (χ^2) was taken. Once values of thickness (nm) and density (kg/m^3) were found with the model, the two were multiplied to calculate areal mass in ng/cm^2.
QCM-D: Covalent Linking of C-CHY1. SiO2-coated quartz crystal sensors from Biolin Scientific (Stockholm, Sweden) were used as immobilization platforms for the modified C-CHY1. Before use, SiO2 sensors were cleaned in the QCM-D at 40° C. using ethanol, DI water, 2% sodium dodecyl sulfate (w/v), DI water again, and then nitrogen dried. Lastly, sensor surfaces were treated for 2 min using an oxygen plasma cleaner (SPI Supplies, PA USA) to both clean and functionalize the surface. The SiO2 crystals were then silanized by submerging in a 10% (v/v) (3-Aminopropyl)-trimethoxysilane (APTMS) in methanol solution for 20 min. Each sensor was then rinsed twice thoroughly with methanol and DI water and placed in each QCM-D chamber.
Changes in frequency (Δf, Hz) and dissipation (ΔD, ×10-6 Hz) at the 3rd, 5th, 7th, 9th and 11th overtones were monitored at a constant 23° C. in all chambers using a Q-Sense E4 QCM-D system (Biolin Scientific, Stockholm, Sweden). All flow rates for the solutions were at 0.1 mL/min unless otherwise noted, and all volumes given are on a per chamber basis. PBS/EDTA (pH 7.2) buffer was used to establish a stable baseline measurement. Maleimide PEG N-hydroxysuccinimide ester molecules (MAL-PEG-NHS) with molecular weights (MW) of 866 (ThermoScientific, Waltham Mass., USA), 2000, or 7500 (JenKem Technology USA Inc., Allen, Tex. USA) were purchased. These will be referred to as PEG 866, PEG 2000 and PEG 7500, respectively. One mL of 100 μM MAL-PEG-NHS was flowed through the QCM-D and subsequently incubated for 30 min. Crystals were then rinsed with 1.2 mL of the PBS/EDTA (pH 7.2) buffer. […]

[5] = tested on: keratinocyte; conditions: cited from earlier work

Compound | concentration with significant toxicity against epithelial cells [1] | mortality of E. coli [2] | mortality of S. aureus [3] | Chrysophsin-1 attachment ng Voigt-Kelvin ([4]; QCM-D) | Chrysophsin-1 attachment ng Sauerbrey ([4]; QCM-D) | C-CHY1 areal mass (ng/cm^2) Sauerbrey ([4]; QCM-D) | C-CHY1 areal mass (ng/cm^2) Voigt-Kelvin ([4]; QCM-D) | PEG/C-CHY1 layer thickness (nm) Voigt-Kelvin ([4]; QCM-D) | PEG/C-CHY1 layer thickness (nm) Voigt-Kelvin ([4]; QCM-D, listed as No Tether (PHYS-ADSORB)) | Δm bound to the surface on peptide introduction ([4]; QCM-D, from Δf decrease on peptide flow, before rinse) | peptide remaining adsorbed after rinse ([4]; physical adsorption, after PBS rinse) | concentration that negatively affects keratinocyte viability [5] | bactericidal activity against E. coli compared across tether lengths [2] | bactericidal activity against S. aureus compared across tether lengths [3] | mortality of S. aureus after temperature-optimized PEG binding ([3]; PEG 7500 binding at 55° C, back to 23° C for C-CHY1 binding and 1 hour S. aureus incubation) | extension of layer: modelled thickness as percent of theoretical maximum thickness ([4]; Voigt-Kelvin thickness vs theoretical maximum)
CC[C@H](C)[C@H](NC(=O)CN)C(=O)NCC(=O)N[C@@H](C)C(=O)N[C@H](C(=O)N[C@@H](CC(C)C)C(=O)N[C@@H](CCCCN)C(=O)N[C@H](C(=O)N[C@@H](CC(C)C)C(=O)N[C@H](C(=O)N[C@H](C(=O)NCC(=O)N[C@@H](CC(C)C)C(=O)N1CCC[C@H]1C(=O)N[C@@H](C)C(=O)N[C@@H](CC(C)C)C(=O)N[C@H](C(=O)N[C@@H](CO)C(=O)N[C@@H](Cc1c[nH]c2ccccc12)C(=O)N[C@H](C(=O)N[C@@H](CCCCN)C(=O)N[C@@H](CCCNC(=N)N)C(=O)N[C@@H](CCCCN)C(=O)N[C@@H](CCCNC(=N)N)C(=O)N[C@@H](CCC(N)=O)C(=O)N[C@@H](CCC(N)=O)C(N)=O)[C@@H](C)CC)[C@@H](C)CC)[C@@H](C)O)[C@@H](C)O)C(C)C)C(C)C [melittin] | 1.2 | – | – | – | – | – | – | – | – | – | – | – | – | – | – | –
FFGWLIKGAIHAGKAIHGLIHRRRH [CHY1, Chrysophsin-1, reference compound] | – | 52.3±1.2% | 56.7±1.1% | 373.3 ± 58.6 ng | 204.9 ± 7.99 ng | 260.9 ± 10.2 ng/cm^2 | 475.3 ± 74.6 ng/cm^2 | 2.5±0.5 nm | 2.50 ± 0.49 nm | about 0.4 μg | about 50% | – | – | – | – | –
LL-37: human derived cathelicidin peptide | – | – | – | – | – | – | – | – | – | – | – | 10 | – | – | – | –
Maleimide PEG N-hydroxysuccinimide ester [PEG 866] | – | 46±2.3% | – | 835.2 ± 168 ng | 874.0 ± 48.8 ng | 1113 ± 62.2 ng/cm^2 | 1063±215 ng/cm^2 | – | – | – | – | – | – | – | – | –
Maleimide PEG N-hydroxysuccinimide ester [PEG 2000] | – | – | – | 2284 ± 113 ng | 2238 ± 60.4 ng | 2850 ± 76.9 ng/cm^2 | 2909±144 ng/cm^2 | 17.6±1.3 nm and 17.6±1.32 nm | – | – | – | – | lowest ability to kill | lowest ability to kill | – | –
Maleimide PEG N-hydroxysuccinimide ester [PEG 7500] | – | – | 64±4.5% | 1870 ± 176 ng | 1753 ± 43.9 ng | 2232 ± 55.0 ng/cm^2 | 2381±223 ng/cm^2 and 2381 ± 224 ng/cm^2 | 21.9±1.86 nm | – | – | – | – | most efficient bactericidal activity; also recorded: highest activity | most efficient bactericidal activity; also recorded: highest activity | 91±6.9% | 38%
